Measurements as given in patent US11759455B2, “Substituted 1H-imidazo[4,5-b]pyridin-2(3H)-ones and their use as GLUN2B receptor modulators” (JANSSEN PHARMACEUTICA NV, priority 2016, dated 2023).
Where two headings read alike, the source gives them in different places.

Biological target: T1, human GluN1/GluN2B NMDA receptors (Homo sapiens, UniProt Q13224)
T1 construct: expressed in transfected cells
Assay: Cell-based calcium flux (FLIPR) assay on cloned human NR1/NR2B ion channels expressed in mammalian cells (standard and HTS buffer variants);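 note: stable Tet-On inducible cell line, Ca2+ influx triggered by glutamate at about EC40 plus 10 µM glycine, fluorescent dye read-out over 5 min, normalized to control wells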

[1] = standard assay buffer (0.5 mM MgCl2 in dye loading buffer; 137 mM NaCl, 4 mM KCl in assay buffer), human GluN1/GluN2B, read-out: NR2B IC50 (μM) standard assay
[2] = standard assay buffer (0.5 mM MgCl2 dye loading; 137 mM NaCl, 4 mM KCl assay buffer), human GluN1/GluN2B cells, read-out: NR2B IC50 (μM) standard assay

T1 sequence (Q13224 27-1484, other chains not shown): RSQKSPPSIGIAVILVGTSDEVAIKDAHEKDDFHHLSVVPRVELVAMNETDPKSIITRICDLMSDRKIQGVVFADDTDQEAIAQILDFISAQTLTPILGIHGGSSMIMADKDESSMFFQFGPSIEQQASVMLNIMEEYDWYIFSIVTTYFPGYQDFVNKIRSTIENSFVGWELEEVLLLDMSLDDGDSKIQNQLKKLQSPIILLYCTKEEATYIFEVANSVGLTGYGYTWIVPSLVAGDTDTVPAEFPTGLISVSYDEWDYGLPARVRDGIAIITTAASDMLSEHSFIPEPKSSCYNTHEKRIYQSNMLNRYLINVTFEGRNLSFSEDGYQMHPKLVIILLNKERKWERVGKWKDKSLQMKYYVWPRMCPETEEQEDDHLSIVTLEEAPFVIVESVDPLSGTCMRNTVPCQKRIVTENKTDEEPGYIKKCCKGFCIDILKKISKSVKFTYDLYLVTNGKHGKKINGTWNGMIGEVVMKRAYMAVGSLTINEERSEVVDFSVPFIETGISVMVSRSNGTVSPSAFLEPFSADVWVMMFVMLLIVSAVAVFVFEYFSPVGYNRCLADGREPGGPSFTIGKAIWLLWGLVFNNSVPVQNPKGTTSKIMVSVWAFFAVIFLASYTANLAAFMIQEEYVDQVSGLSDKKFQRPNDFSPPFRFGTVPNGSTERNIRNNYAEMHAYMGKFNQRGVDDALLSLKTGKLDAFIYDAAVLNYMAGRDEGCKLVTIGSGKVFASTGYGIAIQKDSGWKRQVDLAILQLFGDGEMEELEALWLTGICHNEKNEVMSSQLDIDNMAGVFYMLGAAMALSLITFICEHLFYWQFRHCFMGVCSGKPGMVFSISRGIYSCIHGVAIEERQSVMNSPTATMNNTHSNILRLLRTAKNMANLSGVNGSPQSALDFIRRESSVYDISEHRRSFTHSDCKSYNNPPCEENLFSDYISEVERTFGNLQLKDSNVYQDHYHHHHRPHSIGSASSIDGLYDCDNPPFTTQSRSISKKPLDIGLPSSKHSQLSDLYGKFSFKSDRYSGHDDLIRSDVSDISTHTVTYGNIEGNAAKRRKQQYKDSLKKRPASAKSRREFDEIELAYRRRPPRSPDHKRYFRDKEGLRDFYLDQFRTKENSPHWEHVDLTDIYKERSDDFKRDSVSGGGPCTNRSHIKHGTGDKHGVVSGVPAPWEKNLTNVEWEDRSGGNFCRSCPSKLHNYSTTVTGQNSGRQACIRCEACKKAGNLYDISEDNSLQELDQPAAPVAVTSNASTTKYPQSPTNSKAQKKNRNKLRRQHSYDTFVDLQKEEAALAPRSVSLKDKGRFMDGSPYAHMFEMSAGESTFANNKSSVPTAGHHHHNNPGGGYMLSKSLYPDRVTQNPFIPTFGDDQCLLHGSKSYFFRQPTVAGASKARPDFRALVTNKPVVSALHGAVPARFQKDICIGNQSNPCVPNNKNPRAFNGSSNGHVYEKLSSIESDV

## Cn1c(=O)n(Cc2cccnc2)c2cc(-c3cccc(C(F)(F)F)c3)cnc21 [Example 362, 3-Methyl-1-(3-pyridylmethyl)-6-[3-(trifluoromethyl)phenyl]imidazo[4,5-b]pyridin-2-one]
[1]
  IC50: 0.105 µM

## Cc1cccc(-c2cnc3[nH]c(=O)n(CCN4CCC4)c3c2)c1 [Example 154, 1-[2-(Azetidin-1-yl)ethyl]-6-(m-tolyl)-3H-imidazo[4,5-b]pyridin-2-one]
[2]
  IC50: 0.077 µM

## Cc1cc(Cn2c(=O)n(C)c3ncc(-c4ccc(F)c(F)c4)cc32)no1 [Example 8, 6-(3,4-Difluorophenyl)-3-methyl-1-[(5-methylisoxazol-3-yl)methyl]imidazo[4,5-b]pyridin-2-one]
[2]
  IC50: 0.104 µM

## Cn1c(=O)n(CC(=O)N2CCC2)c2cc(-c3ccc(C(F)(F)F)s3)cnc21 [Example 27, 1-[2-(Azetidin-1-yl)-2-oxo-ethyl]-3-methyl-6-[5-(trifluoromethyl)-2-thienyl]imidazo[4,5-b]pyridin-2-one]
[2]
  IC50: 0.031 µM

## O=c1[nH]c2ncc(-c3ccc(F)c(F)c3)cc2n1Cc1cncc(F)c1 [Example 298, 6-(3,4-Difluorophenyl)-1-[(5-fluoro-3-pyridyl)methyl]-3H-imidazo[4,5-b]pyridin-2-one]
[2]
  IC50: 0.032 µM

## Cc1c(F)ccc(-c2cnc3[nH]c(=O)n(Cc4cccnc4)c3c2)c1F [Example 293, 6-(2,4-Difluoro-3-methyl-phenyl)-1-(3-pyridylmethyl)-3H-imidazo[4,5-b]pyridin-2-one]
[2]
  IC50: 0.017 µM

## Cc1c(F)ccc(-c2cnc3c(c2)n(CC(=O)N(C)C)c(=O)n3CF)c1F [Example 599, 2-[6-(2,4-Difluoro-3-methyl-phenyl)-3-(fluoromethyl)-2-oxo-imidazo[4,5-b]pyridin-1-yl]-N,N-dimethyl-acetamide]
[1]
  IC50: 0.025 µM

## CCc1ccc(-c2cnc3c(c2)n(CC(=O)N(C)C)c(=O)n3C)s1 [Example 79, 2-[6-(5-Ethyl-2-thienyl)-3-methyl-2-oxo-imidazo[4,5-b]pyridin-1-yl]-N,N-dimethyl-acetamide]
[2]
  IC50: 0.031 µM

## Cc1noc(Cn2c(=O)[nH]c3ncc(-c4ccc(F)c(F)c4)cc32)n1 [Example 143, 6-(3,4-Difluorophenyl)-1-[(3-methyl-1,2,4-oxadiazol-5-yl)methyl]-3H-imidazo[4,5-b]pyridin-2-one]
[2]
  IC50: 0.075 µM

## O=c1[nH]c2ncc(-c3cccc(C(F)(F)F)c3)cc2n1C(F)(F)c1cccnc1 [Example 237, 1-[Difluoro(3-pyridyl)methyl]-6-[3-(trifluoromethyl)phenyl]-3H-imidazo[4,5-b]pyridin-2-one]
[2]
  IC50: > 10 µM

## Cn1c(=O)n(Cc2cccnc2)c2cc(-c3ccc(C(F)(F)F)s3)cnc21 [Example 364, 3-Methyl-1-(3-pyridylmethyl)-6-[5-(trifluoromethyl)-2-thienyl]imidazo[4,5-b]pyridin-2-one]
[1]
  IC50: 0.168 µM

## O=c1[nH]c2ncc(-c3cccc(F)c3)cc2n1Cc1cccnc1 [Example 290, 6-(3-fluorophenyl)-1-(3-pyridylmethyl)-3H-imidazo[4,5-b]pyridin-2-one]
[2]
  IC50: 0.065 µM

## Cc1cc(Cn2c(=O)[nH]c3ncc(-c4cccc(C(F)(F)F)c4)cc32)ccc1F [Example 221, 1-[(4-Fluoro-3-methyl-phenyl)methyl]-6-[3-(trifluoromethyl)phenyl]-3H-imidazo[4,5-b]pyridin-2-one]
[2]
  IC50: 8.71 µM

## CCOc1ccc(F)cc1-c1cnc2[nH]c(=O)n(Cc3cc(C)on3)c2c1 [Example 521, 6-(2-Ethoxy-5-fluoro-phenyl)-1-[(5-methylisoxazol-3-yl)methyl]-3H-imidazo[4,5-b]pyridin-2-one]
[1]
  IC50: 0.132 µM

## COc1cccnc1Cn1c(=O)[nH]c2ncc(-c3cccc(C(F)(F)F)c3)cc21 [Example 233, 1-[(3-Methoxy-2-pyridyl)methyl]-6-[3-(trifluoromethyl)phenyl]-3H-imidazo[4,5-b]pyridin-2-one]
[2]
  IC50: 2.83 µM

## Cn1c(=O)n(Cc2ccccn2)c2cc(-c3ccc(F)c(F)c3)cnc21 [Example 62, 6-(3,4-difluorophenyl)-3-methyl-1-(2-pyridylmethyl)imidazo[4,5-b]pyridin-2-one]
[2]
  IC50: 2 µM

## Cc1cccc(-c2cnc3c(c2)n(Cc2cccnn2)c(=O)n3C)c1 [Example 379, 3-Methyl-6-(m-tolyl)-1-(pyridazin-3-ylmethyl)imidazo[4,5-b]pyridin-2-one]
[1]
  IC50: 0.033 µM

## Cc1c(F)ccc(-c2cnc3c(c2)n(Cc2ccncc2)c(=O)n3C)c1F [Example 66, 6-(2,4-Difluoro-3-methyl-phenyl)-3-methyl-1-(4-pyridylmethyl)imidazo[4,5-b]pyridin-2-one]
[2]
  IC50: 0.725 µM

## Cc1noc(Cn2c(=O)n(C)c3ncc(-c4cccc(C(F)(F)F)c4)cc32)n1 [Example 76, 3-Methyl-1-[(3-methyl-1,2,4-oxadiazol-5-yl)methyl]-6-[3-(trifluoromethyl)phenyl]imidazo[4,5-b]pyridin-2-one]
[2]
  IC50: 0.218 µM

## CCOc1ccccc1-c1cnc2[nH]c(=O)n(CC(=O)NC3CC3)c2c1 [Example 456, N-Cyclopropyl-2-[6-(2-ethoxyphenyl)-2-oxo-3H-imidazo[4,5-1D]pyridin-1-yl]acetamide]
[1]
  IC50: 0.146 µM

## Cc1c(F)ccc(-c2cnc3c(c2)n(Cc2cncc(F)c2)c(=O)n3C)c1F [Example 341, 6-(2,4-Difluoro-3-methyl-phenyl)-1-[(5-fluoro-3-pyridyl)methyl]-3-methyl-imidazo[4,5-b]pyridin-2-one]
[1]
  IC50: 0.081 µM

## Cn1c(=O)n(Cc2cncc(Cl)c2)c2cc(-c3cc(F)c(F)c(F)c3)cnc21 [Example 370, 1-[(5-Chloro-3-pyridyl)methyl]-3-methyl-6-(3,4,5-trifluorophenyl)imidazo[4,5-b]pyridin-2-one]
[1]
  IC50: 0.131 µM

## CCC(=O)Cn1c(=O)[nH]c2ncc(-c3cccc(F)n3)cc21 [Example 537, 6-(6-Fluoro-2-pyridyl)-1-(2-oxobutyl)-3H-imidazo[4,5-b]pyridin-2-one]
[1]
  IC50: 0.273 µM

## Cn1c(=O)n(Cc2cccnn2)c2cc(-c3ccc(Cl)c(C(F)(F)F)c3)cnc21 [Example 384, 6-[4-Chloro-3-(trifluoromethyl)phenyl]-3-methyl-1-(pyridazin-3-ylmethyl)imidazo[4,5-b]pyridin-2-one]
[1]
  IC50: 0.206 µM

## Cn1c(=O)n(Cc2cncc(F)c2)c2cc(-c3ccc(Cl)c(Cl)c3)cnc21 [Example 351, 6-(3,4-Dichlorophenyl)-1-[(5-fluoro-3-pyridyl)methyl]-3-methyl-imidazo[4,5-b]pyridin-2-one]
[1]
  IC50: 0.251 µM

## CN(C)C(=O)Cn1c(=O)n(C)c2ncc(-c3ccc(F)s3)cc21 [Example 82, 2-[6-(5-Fluoro-2-thienyl)-3-methyl-2-oxo-imidazo[4,5-b]pyridin-1-yl]-N,N-dimethyl-acetamide]
[2]
  IC50: 0.154 µM

## O=C(Cn1c(=O)n(CF)c2ncc(-c3ccc(C(F)(F)F)s3)cc21)N1CC(F)C1 [Example 597, 1-[2-(3-Fluoroazetidin-1-yl)-2-oxo-ethyl]-3-(fluoromethyl)-6-[5-(trifluoromethyl)-2-thienyl]imidazo[4,5-b]pyridin-2-one]
[1]
  IC50: 0.063 µM

## Cn1c(=O)n(CC(=O)N2CCC2)c2cc(-c3ccc(C(F)F)s3)cnc21 [Example 93, 1-[2-(Azetidin-1-yl)-2-oxo-ethyl]-6-[5-(difluoromethyl)-2-thienyl]-3-methyl-imidazo[4,5-b]pyridin-2-one]
[2]
  IC50: 0.006 µM

## Cc1cc(Cn2c(=O)n(C)c3ncc(-c4ccc(C(F)(F)F)s4)cc32)no1 [Example 570, 3-Methyl-1-[(5-methylisoxazol-3-yl)methyl]-6-[5-(trifluoromethyl)-2-thienyl]imidazo[4,5-b]pyridin-2-one]
[1]
  IC50: 0.139 µM

## O=c1[nH]c2ncc(-c3cccc(C(F)(F)F)c3)cc2n1CCN1CC(O)C1 [Example 147, 1-[2-(3-Hydroxyazetidin-1-yl)ethyl]-6-[3-(trifluoromethyl)phenyl]-3H-imidazo[4,5-b]pyridin-2-one]
[2]
  IC50: 0.365 µM

## O=c1[nH]c2ncc(-c3cccc(OC(F)(F)F)c3)cc2n1Cc1cncc(F)c1 [Example 307, 1-[(5-Fluoro-3-pyridyl)methyl]-6-[3-(trifluoromethoxy)phenyl]-3H-imidazo[4,5-b]pyridin-2-one]
[2]
  IC50: 0.088 µM

## Cc1cc(C)cc(-c2cnc3[nH]c(=O)n(CCN4CCC4)c3c2)c1 [Example 170, 1-[2-(Azetidin-1-yl)ethyl]-6-(3,5-dimethylphenyl)-3H-imidazo[4,5-b]pyridin-2-one]
[2]
  IC50: 0.581 µM

## Cc1cc(Cn2c(=O)[nH]c3ncc(-c4cc(F)cc(F)c4)cc32)no1 [Example 523, 6-(3,5-Difluorophenyl)-1-[(5-methylisoxazol-3-yl)methyl]-3H-imidazo[4,5-b]pyridin-2-one]
[1]
  IC50: 0.133 µM

## COc1ccc(-c2cnc3[nH]c(=O)n(CC(=O)NC4CC4)c3c2)cc1 [Example 38, N-Cyclopropyl-2-[6-(4-methoxyphenyl)-2-oxo-3H-imidazo[4,5-b]pyridin-1-yl]acetamide]
HTS assay buffer (1.5 mM MgCl2 dye loading; 150 mM NaCl, 3 mM KCl assay buffer), human GluN1/GluN2B cells, read-out: NR2B IC50 (μM) HTS assay
  IC50: 1.01 µM

## Cc1c(F)ccc(-c2cnc3c(c2)n(CC(=O)N(C)C)c(=O)n3C)c1F [Example 423, 2-[6-(2,4-Difluoro-3-methyl-phenyl)-3-methyl-2-oxo-imidazo[4,5-b]pyridin-1-yl]-N,N-dimethyl-acetamide]
[1]
  IC50: 0.006 µM

## COc1cc(F)ccc1-c1cnc2[nH]c(=O)n(Cc3cccc(C#N)c3)c2c1 [Example 478, 3-[[6-(4-Fluoro-2-methoxy-phenyl)-2-oxo-3H-imidazo[4,5-b]pyridin-1-yl]methyl]benzonitrile]
HTS assay buffer (1.5 mM MgCl2 in dye loading buffer; 150 mM NaCl, 3 mM KCl in assay buffer), human GluN1/GluN2B, read-out: NR2B IC50 (μM) HTS assay
  IC50: 3.04 µM

## O=c1[nH]c2ncc(-c3cccc(Cl)c3)cc2n1Cc1ccccn1 [Example 282, 6-(3-Chlorophenyl)-1-(2-pyridylmethyl)-3H-imidazo[4,5-b]pyridin-2-one]
[2]
  IC50: 2.61 µM
